# Experimental data as given in patent US11237156B2, “Method and composition for detection of peptide cyclization using protein tags” (Roche Sequencing Solutions, Inc., priority 2016, dated 2022).
# No end group written: not given here.
# Key:
# Cy3 anti-FLAG mouse mAB = experiment: Cyclization tag assay, anti-FLAG binding to peptide microarray; conditions: cyclization tag compared with fragmented control
# Text: (§1) With the matured linear protein tags at hand, the linear peptides were formed on a microarray where the tags were fragmented across the N- and C-terminus of the peptide such that upon cyclization, the complete protein tag is formed. The peptides were split around the low specificity position identified according to Examples 2 and 4 (position 6, for both tags), and that position was substituted with allyl-E (see FIG. 1). A flexible linker (Z) was inserted between the two peptide tag fragments to increase flexibility. Z was a 3:1 mixture of Gly:Ser. The linear peptide sequences are shown in Table 1 for the FLAG- and Myc-based sequenced in the row titled “Cyclization tag.” In addition to the cyclization tags, two controls were compared to each tag. The matured linear sequences identified according to Examples 2 and 4 (shown in Table 1 in the row titled “Linear control”) were formed on the microarray and tested as positive controls. […]
# (§2) Cy3 and Cy5 fluorescence intensity of the arrays was measured with MS200 scanner (Roche NimbleGen) at resolution 2 um, wavelength 532 nm or 635 nm, gain 25% and laser intensity 100%. […]
# anti-FLAG antibody = experiment: FLAG-based sequence maturation binding assay (single substitutions, signal intensity); conditions: for signal intensity after single mutation of the precursor sequence: linear tag on microarray, each position substituted with remaining 19 natural amino acids
# Description: A fragmented peptide tag was designed to be specific for the anti-FLAG antibody near the N-terminus and C-terminus of the peptide tag, while having low specificity in the middle of the sequence to assist with attachment to a microarray surface through an amino acid side chain. […] A maturation of the FLAG (GDYKDDDDKGG (SEQ ID NO: 232)) tag was performed with the tag in linear form. Each amino acid in the 11 mer peptide was individually substituted with each of the remaining 19 amino acids. As further described below, the process was repeated with modified sequences until the desired specificity at each position was achieved.
# Referring to FIG. 25, the initial FLAG sequence (GDYKDDDDKGG (SEQ ID NO: 232)) was modified at each of positions 1-11 individually with each of the remaining 19 natural amino acids, and signal intensity (y-axis) was measured.
# anti-Myc antibody = experiment: Myc sequence maturation binding assay (single substitutions, signal intensity)
# Text: A fragmented protein tag was designed to be specific for the anti-Myc antibody near the N-terminus and C-terminus of the peptide tag, while having low specificity in the middle of the sequence to assist with attachment to a microarray surface through an amino acid side chain. It is to be understood that in some embodiments the amino acid attached to the microarray surface can be near either end of the peptide tag and not necessary closer to the middle of the peptide tag. […] A maturation of the Myc (EQKLISEEDLG (SEQ ID NO: 233)) tag was performed with the tag in the linear form. Each amino acid in the 11 mer peptide was substituted with each of the remaining 19 amino acids. As further described below, the process was repeated until the desired specificity at each position was achieved.
# Referring to FIG. 29, the initial Myc sequence (EQKLISEEDLG (SEQ ID NO: 233)) was modified at positions 1-11 and signal intensity (y-axis) was measured.
# streptavidin-Cy5 = streptavidin-Cy5 (Streptomyces avidinii, UniProt P22629); experiment: Streptavidin-Cy5 binding to cyclic/linear peptide microarray (fluorescence); conditions: for cyclic fluorescent intensity: cyclic subarray
# Description: Slides were bound with […] streptavidin-Cy5 in 30 mL binding buffer for 30 minutes at room temperature. Binding buffer contained 1% alkali soluble casein and 0.05% tween-20 in 1×TBS, pH 7.4. After 30 minutes, slides were washed twice in 1×TBS buffer for 1 minute, water for 30 seconds, and spun to dryness.
# Cy5 fluorescence intensity of the arrays was measured with MS200 scanner (Roche NimbleGen) at resolution 2 um, wavelength 635 nm, gain 25% and laser intensity 100%. Cy5 signal intensities were extracted using Image Extraction Software (Roche NimbleGen). Data pre-processing, normalization and statistical tests were done in R. Data visualization and analysis were performed with Spotfire 6.5.0 (Tibco, Boston, Mass.) software platform.
# Cy5 anti-Myc mouse mAB = experiment: Cyclization tag assay, anti-Myc binding to peptide microarray; conditions: cyclization tag compared with fragmented control
# Text: as §1, §2
# [1] = single substitution scan of the matured tag
# [2] = extension of HPQ-specific design, all J combinations of JXXHPQXXJU
# Sequence of streptavidin-Cy5 (P22629 25-183): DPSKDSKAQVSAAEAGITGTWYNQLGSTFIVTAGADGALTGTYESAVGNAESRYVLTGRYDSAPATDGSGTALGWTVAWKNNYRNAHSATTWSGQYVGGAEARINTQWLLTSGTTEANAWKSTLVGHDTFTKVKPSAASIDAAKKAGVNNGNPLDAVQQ
substance,measurement,setting,value
"DQKGGZZZZWDYKD{allyl-E} (DQKGGXXXXWDYKDE; not fully specified (residue 15); printed as DQKGGZZZZWDYKD{allyl-E}; also: X6-X9: Gly or Ser mixture) [FLAG cyclization tag, fragmented FLAG-based tag on microarray, Z = 3:1 mixture of Gly:Ser, cyclized via allyl-E]",median fluorescence,Cy3 anti-FLAG mouse mAB,higher than that of the fragmented control peptides
"WDYKDFDQKGG [G1W, D6F, D8Q-FLAG tag, matured FLAG tag, position 8 mutated to glutamine]",specificity by sequence position for the anti-FLAG antibody,anti-FLAG antibody; [1],specificity for the anti-FLAG antibody on the N-terminus (position 1-4) and the C-terminus (position 7-8)
EQKLISEEDWG [L10W-Myc tag],signal intensity after single mutation of the precursor sequence,"anti-Myc antibody; linear tag on microarray, positions 1-11 modified",strongest increase in signal intensity
same,specificity by sequence position for the anti-Myc antibody,anti-Myc antibody; [1],strong specificity on the N-terminus (position 1-5) and moderate specificity on the C-terminus
NQpWU [cylic NQpWU],cyclic fluorescent intensity,streptavidin-Cy5; peptide library of format XXXXU,highest cyclic fluorescent intensity
WDYKDDDDKGG [G1W-FLAG tag],signal intensity after single mutation of the precursor sequence,anti-FLAG antibody,strongest increase in signal intensity
"WDYKDFDDKGG [G1W, D6F-FLAG tag, G1W-FLAG tag with position 6 mutated to phenylalanine]",signal intensity after single mutation of the precursor sequence,anti-FLAG antibody,strongest increase in signal intensity
"EEDWGZZZZEQKLI{allyl-E} (EEDWGXXXXEQKLIE; not fully specified (residue 15); printed as EEDWGZZZZEQKLI{allyl-E}; also: X6-X9: Gly or Ser mixture) [Myc cyclization tag, fragmented Myc-based tag on microarray, Z = 3:1 mixture of Gly:Ser, cyclized via allyl-E]",median fluorescence,Cy5 anti-Myc mouse mAB,higher than that of the fragmented control peptides
LYDHPQNGGU (cyclo(LYDHPQNGGE); also: Glu10 surface-linked) [cylic LYDHPQNGGU],cyclic fluorescent intensity,streptavidin-Cy5; [2],highest cyclic intensity
QNDHPQNGGU (cyclo(QNDHPQNGGE); also: Glu10 surface-linked) [cyclic QNDHPQNGGU],log fold change (log FC) between cyclic and linear fluorescent intensity,"streptavidin-Cy5; extension of HPQ-specific design, JXXHPQXXJU",high log FC
same,cyclic fluorescent intensity,streptavidin-Cy5; [2],high cyclic intensity
